# From US20210255168A1, “A METHOD OF PRECISION CANCER THERAPY” (KING FAISAL SPECIALIST HOSPITAL & RESEARCH CENTRE, priority 2018, published 2021)
# Legend:
# Assay type in all cases: cell-based
# [1] = test system: TNF-α-ARE luciferase reporter in MDA-MB-231 cells; experiment: Post-transcriptional ARE luciferase reporter assay (kinase inhibitor library screen)
# From the text: Reporters were designed to be driven by the ribosomal protein subunit 30 (RPS30) promoter. The promoter was amplified using PCR with primers specific to the flanking region of the RPS30 promoter sequence. The gene structure of RPS30 was obtained from the Ribosomal Protein Database (http://ribosome.med.miyazaki-u.ac.jp). The forward and reverse primers included the restriction sites, EcoR V and SalI sites. Amplified DNA fragments were then resolved in 1.2%-1.5% agarose gel and the amplicon bands were excised, purified and cloned into the promoterless plasmid. TNF-α 3′-UTR and TNF-α ARE were used to study the role of AU-rich elements in the action of PKs inhibitors. The AU-rich sequence that comprised 250 bases from TNF-α 3′UTR (1200-1450 bp, NM_00059) was amplified by PCR using the forward primer 5′-[…]-3′ (SEQ ID NO:1) and the reverse primer 5′-[…]-3′ (SEQ ID NO:2). The TNF-α-ARE sequence was made by annealing two synthetic complementary oligonucleotides of 70 bases that correspond to TNF-α ARE. The control reporter was constructed to have the basic structure of post-transcriptional reporter except 3′UTR which lack the AU-rich element sequence like this of bovine growth hormone. Any ARE reiterations or variations can be used, with minimal sequence is AUUUA, preferably, WW(AUUUA)WW, where W=A or U. They can be also repeated as an overall, e.g., AUUUAUUA, anywhere from 0 to 10 repeats as example.
# Selleckchem Kinase Inhibitor Library that includes a selection of 378 pharmacologically active inhibitors of a number of protein kinases was purchased from Selleckchem. (Houston, Tex., USA). This library is a collection of 378 kinase inhibitors some of which have been approved by the FDA. Each compound is provided as a pre-dissolved 10 mM dimethyl sulfoxide (DMSO) solution as a 96 well format tube (100 μL). The compounds were diluted by OPTI-MEM (Thermo Fisher Scientific, Waltham, Mass., USA) to a final concentration of 5 μM.
# Post-transcriptional and control reporter constructs were transfected to MDA-MB-231 cells separately that were seeded in 96-well microplates at a density of 4×10^4 cells/well and incubated overnight. Using lipofectamine 2000 protocol (Invitrogen, Carlsbad, Calif., USA), the cells were transfected with 10 ng of either RPS30-luciferase-control 3′UTR or RPS30-luciferase-ARE 3′UTR reporter plasmids. After 24 h, the cells were treated with each member of protein kinase inhibitors kit for 24 h. Then, luciferase reaction was performed as prescribed by manufacture's protocol (Nano-Glo Luciferase, Promega, Madison, Wis., USA)/well. After 15 minutes, the reporters' activities were measured through the measurement of the chemiluminescence (FIG. 8) after treatment using a Zenith 3100 (Anthos Labtec, Eugendorf, Austria).
# Data are presented as means±standard error of the mean (SEM). Two-sample Student's t-test was used to determine the differences between two data sets. One-way analysis of variance (ANOVA) was used to compare three or more data columns. Two-way analysis of variance was used to analyze two groups of data, each having two data columns. Analysis was performed using GraphPad Prism version 6.00 for Windows, (GraphPad Software, La Jolla Calif., USA). For high throughput screening (HTS) hit selection (protein kinase inhibitors), strictly standardized mean difference (SSMD) test was used. This statistical test measures the size of effect of each member in a group relative to the other members. It is the mean of each member divided by the standard deviation of the difference between two random values from different groups. Based on the value of SSMD, the effect of each member of the library was classified as strong (β≥5), moderate (1≤β<5), and weak (β<1). In this study, only drug with SSMD score more than or equal to 5 or less than or equal to −5, i.e. strong β, where selected in the primary screening. […]
# [2] = test system: MDA-MB-231, MCF7, and SKBR3 cell lines; experiment: mRNA expression in breast cancer cell lines
# Protocol: (§1) Cells were cultured in six-well plates and either treated with DMSO or drugs for 24 h. Total RNA was then extracted using Trizol reagent (TRI Reagent, Sigma-Aldrich, St Louis, Mo.). The cells were lysed directly on the culture dish by adding 1 ml of the TRI Reagent per 10 cm^2 surface area. Reverse transcription for preparation of cDNA was performed using 3 μg of total RNA, 150 ng random primers, 0.1 M dithiothreitol (DTT), 10 mM deoxynucleotide triphosphate (dNTP) and 200 U of SuperScript II (Invitrogen, Foster City, Calif.). The quantitative RT-QPCR was performed in multiplex in the Chroma 4 DNA Engine cycler (BioRad, Hercules, Calif., USA) using FAM-labelled TaqMan probes (Applied Biosystems, Foster City, Calif., USA) for TTP (ZFP36), HuR (ELAVL1), uPA (PLAU)-CXCR4, MMP-1, MMP-13, IL-8, PLK-1 while a VIC-labelled glyceraldehyde-3-phosphate dehydrogenase (GAPDH) probe was used as the endogenous control. Samples were amplified in triplicate and quantification of relative expression was performed using the estimation of quantitation cycle (Cq) method.
# PLK1 kinase, as an example of kinases involved in cancer, is over-expressed in breast cancer cell lines, including MCF7, MDA-MB-231 and SKBR3 when compared to the normal-like MCF10A (FIG. 5A). Many kinases are either over-expressed or constitutively active or hyperactive in cancer states when compared to normal cells. As example of inhibitors that are found in the precision cancer therapy screen, Volasertib and Regorafenib (VEGFR kinase inhibitor) led to reduction in the level of ARE-containing mRNA, uPA in most of the cancer cell lines. (FIG. 5B).
# The present inventors further disclose that the effect of PLK-1 inhibition is consistent among different types of breast cancer including triple-negative, […], and ER-PR negative breast cancers, as shown through the actions induced by PLK-1 inhibitor volasertib on MDA-MB-231, MCF7, and SKBR3 cell lines, namely increasing the expression of TTP, decreasing the HuR level, and downregulating the TTP target uPA. […] Accordingly, the present inventor discloses that any protein kinase inhibitor which post-transcriptionally regulates expression of cancer-related genes is suitable for precision cancer therapy. Further disclosed is a method of treatment of cancer comprising administering said protein kinase inhibitor, to a patient in need thereof.
# [3] = test system: TTP mRNA in MDA-MB-231 cells; experiment: qPCR for TTP mRNA expression; conditions: MDA-MB-231, 24 h, vs DMSO
# Protocol: as §1
# To study the influence of PLK-1 inhibition on ARE-containing mRNA stability, the effect of volasertib treatment on the half-life of uPA was analyzed. Half-life of uPA mRNA was reduced from >6 hr to 0.5 hr in response to volasertib treatment compared to the DMSO control (FIG. 12C). […]
# [4] = MDA-MB-231, MCF7, and SKBR3 cell lines
structure (smiles),measurement,setting,value
CC[C@@H]1C(=O)N(C)c2cnc(Nc3ccc(C(=O)N[C@H]4CC[C@H](N5CCN(CC6CC6)CC5)CC4)cc3OC)nc2N1C(C)C [volasertib],reduction of TNF-ARE luciferase reporter activity,"[1]; primary screening, 5 μM",40%
same,reduction in percent reporter activity in the secondary screening compared to the control reporter,"[1]; secondary screening, ARE vs non-ARE control reporter",same reduction in percent reporter activity
same,level of ARE-containing mRNA uPA in cancer cell lines,"[2]; MCF7, MDA-MB-231 and SKBR3, most of the cancer cell lines",reduction
same,HuR level,[2]; [4],decreasing
same,TTP target uPA,[2]; [4],downregulating
same,expression of TTP,[2]; [4],increasing
same,enhancement of TTP mRNA expression,[3],40%
